Measured values from patent publication US20140249105A1, “NOVEL CERAMIDE ANALOGUES, PROCESSES FOR PREPARING SAME AND USES THEREOF” (Diverchim, priority 2011, published 2014).

Legend:
B16 melanocytes [1] = assay: Viability of the cells, test of reduction of MTT; format: cell-based; conditions: 72 h
Method: (§1) Melanocytes were seeded on a 96-well plate and cultured for 24 h (37° C., 5% CO2, DMEM 1 g/L glucose without phenol red supplemented with glucose 3 g/L, L-glutamine 2 mM, penicillin 50 U/mL, streptomycin 50 μg/mL, fetal calf serum (FCS) 10%). […] Each experimental condition was carried out with n=3, apart from the controls carried out with n=6. The cells were then incubated for 72 h. Wells without cells received in parallel the same quantities of medium, supplemented or not with NDP-MSH and with or without the test compounds or the reference in order to quantify the background noise associated with the presence of the compounds.
At the end of the treatment, the cells were incubated in the presence of MTT (3-(4,5-dimethylthiazol-2-yl)-2,5-diphenyl tetrazolium bromide), the conversion of which to blue crystals of formazan is proportional to the activity of succinate dehydrogenase (mitochondrial enzyme). After disruption of the cells, the formazan was dissolved in DMSO medium and the optical density (OD), representative of the number of live cells and of their metabolic reactivity, was measured with a microplate reader at 540 nm (VERSAmax, Molecular Devices).

B16 melanocytes [2] = assay: Screening of anti-melanogenesis activity: melanin assay in B16 melanocytes stimulated with NDP-MSH; format: cell-based; conditions: 72 h
Method: This was carried out for compounds in solution in DMSO. The synthesis of melanin was measured in a model of B16 melanocytes stimulated with a stable derivative of α-MSH (natural hormone that stimulates melanogenesis: Melanocyte Stimulating Hormone): NDP-MSH ([Nle^4, DPhe7]-α-MSH).
as §1
At the end of 72 hours of incubation, the total melanin (intra- and extracellular) was quantified by measuring the absorbance of each sample at 405 nm (direct reading of the culture plates) against a standard range of melanin (melanin concentrations tested from 0.78 to 100 μg/mL). The background noise, measured in the wells without cells, was subtracted from the values measured so that only the effect connected with the production of melanin is taken into account, without including any interference connected with the presence of the compounds. The results were expressed in percentage of melanin relative to the control as well as in percentage inhibition.

| SMILES | Viability (MTT) % stimulated control (B16 melanocytes [1]; 30 μM) [% stimulated control] | Viability (MTT) % stimulated control (B16 melanocytes [1]; 100 μM) [% stimulated control] | Normalized data inhibition (%) (B16 melanocytes [2]; 30 μM) | Normalized data inhibition (%) (B16 melanocytes [2]; 100 μM) | other results |
| --- | --- | --- | --- | --- | --- |
| O=C(NC1CC1NC(=O)C(F)=CCCCCCCCCO)C(F)=CCCCCCCCCO (mixture of isomers) [c37] | 77 | 83 | 0 | 92 | – |
| O=C(NC1CCCC1NC(=O)C(F)=CCCCCCCCO)C(F)=CCCCCCCCO (mixture of isomers) [c46] | 77 | 68 | 0 | 75 | – |
| O=C(NC1CCCC1NC(=O)C(F)=CCCCCCCCOC1CCCCO1)C(F)=CCCCCCCCOC1CCCCO1 (mixture of isomers) [c66] | 96 | 93 | 119 | 118 | – |
| O=C(NC1CCC(NC(=O)C(F)=CCCCCCCCOC2CCCCO2)C1)C(F)=CCCCCCCCOC1CCCCO1 (mixture of isomers) [c69] | 87 | 78 | 116 | 112 | – |
| O=C(NC1CCCC1NC(=O)C(F)=CCCCCCCCCOC1CCCCO1)C(F)=CCCCCCCCCOC1CCCCO1 (mixture of isomers) [c71] | 116 | 104 | 93 | 109 | – |
| O=C(NC1CCC(NC(=O)C(F)=CCCCCCCCCOC2CCCCO2)C1)C(F)=CCCCCCCCCOC1CCCCO1 (mixture of isomers) [c74] | 78 | 81 | 110 | 111 | – |
| O=C(NC1CC1NC(=O)C(F)=CCCCCCOC1CCCCO1)C(F)=CCCCCCOC1CCCCO1 (mixture of isomers) [c108] | 75 | 80 | 73 | 105 | – |
| O=C(NC1CC1NC(=O)C(F)=CCCCCCOC1CCCCO1)C(F)=CCCCCCOC1CCCCO1 (racemic) [c110] | 83 | 0 | 104 | 120 | – |
| O=C(NC1CCC(NC(=O)C(F)=CCCCCCO)C1)C(F)=CCCCCCO (racemic) [c115] | 94 | 97 | 0 | 95 | – |
| O=c1cc(CO)occ1O [Kojic acid, reference compound] | – | – | – | – | Viability (MTT) % stimulated control (B16 melanocytes [1]; 25 μg/mL): 103 % stimulated control; Viability (MTT) % stimulated control (B16 melanocytes [1]; 100 μg/mL): 99 % stimulated control; Viability (MTT) % stimulated control (B16 melanocytes [1]; 400 μg/mL): 96 % stimulated control; inhibition at 25 µg/mL (B16 melanocytes [2]; Melanocyte, 25 μg/mL, read-out: Normalized data inhibition (%)): 59%; inhibition at 100 µg/mL (B16 melanocytes [2]; Melanocyte, 100 μg/mL, read-out: Normalized data inhibition (%)): 83%; inhibition at 400 µg/mL (B16 melanocytes [2]; Melanocyte, 400 μg/mL, read-out: Normalized data inhibition (%)): 93% |
| O=C(O)C(F)=CCCCCCCCCCCCCCCCO [Ref 2, 18-Hydroxy-octadec-2-en-2-fluoro-oic acid, reference compound] | 83 | 72 | 0 | 79 | – |
| O=C(NC1CCC(NC(=O)C(F)=CCCCCCOC2CCCCO2)C1)C(F)=CCCCCCOC1CCCCO1 (stereo not shown) [c8] | 86 | 77 | 86 | 115 | – |
| O=C(/C=C/CCCCCCCCO)N[C@H]1CCC[C@H]1NC(=O)/C=C/CCCCCCCCO [c15] | 76 | 74 | 2 | 73 | – |
| O=C(/C=C/CCCCCCCCCCCOC1CCCCO1)N[C@@H]1CC[C@H](NC(=O)/C=C/CCCCCCCCCCCOC2CCCCO2)C1 (stereo partly shown) [c30] | 76 | – | – | – | Viability (MTT) % stimulated control (B16 melanocytes [1]; 10 μM): 77 % stimulated control; inhibition at 10 µM (B16 melanocytes [2]; Melanocyte, 10 μM, read-out: Normalized data inhibition (%)): 42%; inhibition at 30 µM (B16 melanocytes [2]; Melanocyte, 30 μM, read-out: Normalized data inhibition (%)): 71% |
| O=C(N[C@H]1C[C@H]1NC(=O)C(F)=CCCCCCCCCCCCCCCCO)C(F)=CCCCCCCCCCCCCCCCO [c44] | – | – | – | – | Viability (MTT) % stimulated control (B16 melanocytes [1]; 1 μM): 87 % stimulated control; Viability (MTT) % stimulated control (B16 melanocytes [1]; 3 μM): 88 % stimulated control; Viability (MTT) % stimulated control (B16 melanocytes [1]; 10 μM): 91 % stimulated control; Normalized data inhibition (%) (B16 melanocytes [2]; 1 μM): −11%; Normalized data inhibition (%) (B16 melanocytes [2]; 3 μM): 36%; Normalized data inhibition (%) (B16 melanocytes [2]; 10 μM): 69% |
| O=C(N[C@H]1CCC[C@H]1NC(=O)/C(F)=C\CCCCCCCCO)/C(F)=C\CCCCCCCCO [c49] | 83 | 0 | 83 | 118 | – |
| O=C(N[C@@H]1CC[C@H](NC(=O)/C(F)=C/CCCCCCCCO)C1)/C(F)=C/CCCCCCCCO [c58] | 101 | 98 | 62 | 83 | – |
| O=C(NC1CCC(NC(=O)C(F)=CCCCCCCCCCCCO)C1)C(F)=CCCCCCCCCCCCO (stereo not shown) [c60] | 105 | 101 | 83 | 97 | – |
| O=C(N[C@H]1CCC[C@H]1NC(=O)/C(F)=C\CCCCCCCOC1CCCCO1)/C(F)=C\CCCCCCCOC1CCCCO1 (stereo partly shown) [c67] | 71 | 81 | 119 | 116 | – |
| O=C(N[C@@H]1CC[C@H](NC(=O)/C(F)=C/CCCCCCCOC2CCCCO2)C1)/C(F)=C/CCCCCCCOC1CCCCO1 (stereo partly shown) [c68] | 64 | 50 | 95 | 108 | – |
| O=C(N[C@@H]1CC[C@H](NC(=O)/C(F)=C\CCCCCCCOC2CCCCO2)C1)/C(F)=C\CCCCCCCOC1CCCCO1 (stereo partly shown) [c70] | 90 | 86 | 115 | 116 | – |
| O=C(N[C@H]1CCC[C@H]1NC(=O)/C(F)=C\CCCCCCCCOC1CCCCO1)/C(F)=C\CCCCCCCCOC1CCCCO1 (stereo partly shown) [c72] | 102 | 86 | 87 | 112 | – |
| O=C(N[C@@H]1CC[C@H](NC(=O)/C(F)=C\CCCCCOC2CCCCO2)C1)/C(F)=C\CCCCCOC1CCCCO1 (stereo partly shown) [c106] | 73 | 36 | 114 | 119 | – |
| O=C(NC1CCCC1NC(=O)C(F)=CCCCCCOC1CCCCO1)C(F)=CCCCCCOC1CCCCO1 (stereo not shown) [c107] | 95 | 26 | 66 | 120 | – |
| O=C(NC1CC1NC(=O)C(F)=CCCCCCOC1CCCCO1)C(F)=CCCCCCOC1CCCCO1 (stereo not shown) [c111] | 98 | 57 | 25 | 108 | – |
| O=C(NC1CCC(NC(=O)C(F)=CCCCCCO)C1)C(F)=CCCCCCO (stereo not shown) [c116] | 88 | 91 | 6 | 87 | – |
| CCCCCC=CCC=CCCCCCCCC(=O)NC1CC1NC(=O)CCCCCCCC=CCC=CCCCCC (stereo not shown) [c122] | – | – | 8 | 109 | – |
| CCCCCC=CCC=CCCCCCCCC(=O)NC1CCC(NC(=O)CCCCCCCC=CCC=CCCCCC)C1 (stereo not shown) [c135] | – | – | 0 | 90 | – |
